From BindingDB's records for patent US9796704 (SYMPHONY EVOLUTION, INC., 2017)

Assays:
Assay in all cases: AlphaScreen Assay
[1] = target: Receptor tyrosine-protein kinase erbB-2 (Homo sapiens, UniProt P04626)
Protocol: (§1) In AlphaScreen, when the donor and acceptor beads are close in proximity, a series of photochemical events will give rise to a fluorescent signal upon light activation. Here we use biotinylated poly-(Glu, Tyr) 4:1 as the kinase substrate, streptavidin-coated donor beads and anti-phosphortyrosine antibody PY100-coated acceptor beads. […] Compounds, ATP, biotinylated poly-(Glu, Tyr) and kinases are mixed in a volume of 20 μL for 1 hr at ambient temperature using Greiner 384-well white clear bottom medium binding plates. Then 10 uL solution containing 15-30 mg/mL AlphaScreen beads, 75 mM Hepes, pH 7.4, 300 mM NaCl, 120 mM EDTA, 0.3% BSA and 0.03% Tween-20 is added to each well. After 2-16 hr incubation of the beads, plates are read in a Perkin Elmer AlphaQuest reader (available from PerkinElmer Life and Analytical Sciences, Inc., of Boston Mass.).

Ephrin type-A receptor 2 = Ephrin type-A receptor 2 (Homo sapiens, UniProt P29317)
Protocol: as §1

[2] = target: Vascular endothelial growth factor receptor 2 (Homo sapiens, UniProt P35968)
Sequence of Vascular endothelial growth factor receptor 2 (P35968 whole entry): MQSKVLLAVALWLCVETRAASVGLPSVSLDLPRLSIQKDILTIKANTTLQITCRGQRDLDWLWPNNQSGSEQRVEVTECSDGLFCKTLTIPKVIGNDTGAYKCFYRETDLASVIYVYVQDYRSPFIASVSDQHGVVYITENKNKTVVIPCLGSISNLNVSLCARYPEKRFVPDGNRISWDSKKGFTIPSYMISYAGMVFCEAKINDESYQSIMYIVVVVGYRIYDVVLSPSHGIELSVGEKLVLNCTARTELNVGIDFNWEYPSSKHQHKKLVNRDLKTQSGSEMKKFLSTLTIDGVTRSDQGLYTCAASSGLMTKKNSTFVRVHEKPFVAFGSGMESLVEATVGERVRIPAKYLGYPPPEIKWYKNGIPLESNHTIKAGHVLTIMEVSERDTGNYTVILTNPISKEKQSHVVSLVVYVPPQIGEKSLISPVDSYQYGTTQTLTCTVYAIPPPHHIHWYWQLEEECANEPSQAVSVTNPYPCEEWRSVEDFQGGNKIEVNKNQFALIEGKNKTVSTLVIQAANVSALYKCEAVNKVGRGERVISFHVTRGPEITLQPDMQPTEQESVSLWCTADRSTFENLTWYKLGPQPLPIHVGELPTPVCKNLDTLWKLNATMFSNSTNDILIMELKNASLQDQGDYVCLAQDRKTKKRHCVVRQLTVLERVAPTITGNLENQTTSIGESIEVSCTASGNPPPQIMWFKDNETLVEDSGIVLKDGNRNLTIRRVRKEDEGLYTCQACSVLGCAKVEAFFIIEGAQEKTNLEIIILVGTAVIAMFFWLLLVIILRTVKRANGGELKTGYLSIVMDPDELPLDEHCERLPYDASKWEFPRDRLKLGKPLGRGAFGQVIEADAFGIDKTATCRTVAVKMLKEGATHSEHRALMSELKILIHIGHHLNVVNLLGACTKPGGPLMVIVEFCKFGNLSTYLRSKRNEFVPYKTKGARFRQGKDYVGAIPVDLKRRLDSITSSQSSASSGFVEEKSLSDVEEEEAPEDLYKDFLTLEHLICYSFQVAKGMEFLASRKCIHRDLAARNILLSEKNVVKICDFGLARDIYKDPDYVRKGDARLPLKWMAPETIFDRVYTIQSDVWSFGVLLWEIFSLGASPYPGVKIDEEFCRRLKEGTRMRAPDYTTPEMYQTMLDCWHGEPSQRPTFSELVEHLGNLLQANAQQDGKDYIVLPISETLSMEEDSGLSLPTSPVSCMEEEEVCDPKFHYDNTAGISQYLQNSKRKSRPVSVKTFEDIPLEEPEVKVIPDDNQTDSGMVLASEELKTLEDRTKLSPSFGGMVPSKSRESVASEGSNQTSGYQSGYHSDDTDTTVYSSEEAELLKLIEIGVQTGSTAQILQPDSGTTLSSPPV
Protocol: as §1

Sequence of Ephrin type-A receptor 2 (P29317 whole entry): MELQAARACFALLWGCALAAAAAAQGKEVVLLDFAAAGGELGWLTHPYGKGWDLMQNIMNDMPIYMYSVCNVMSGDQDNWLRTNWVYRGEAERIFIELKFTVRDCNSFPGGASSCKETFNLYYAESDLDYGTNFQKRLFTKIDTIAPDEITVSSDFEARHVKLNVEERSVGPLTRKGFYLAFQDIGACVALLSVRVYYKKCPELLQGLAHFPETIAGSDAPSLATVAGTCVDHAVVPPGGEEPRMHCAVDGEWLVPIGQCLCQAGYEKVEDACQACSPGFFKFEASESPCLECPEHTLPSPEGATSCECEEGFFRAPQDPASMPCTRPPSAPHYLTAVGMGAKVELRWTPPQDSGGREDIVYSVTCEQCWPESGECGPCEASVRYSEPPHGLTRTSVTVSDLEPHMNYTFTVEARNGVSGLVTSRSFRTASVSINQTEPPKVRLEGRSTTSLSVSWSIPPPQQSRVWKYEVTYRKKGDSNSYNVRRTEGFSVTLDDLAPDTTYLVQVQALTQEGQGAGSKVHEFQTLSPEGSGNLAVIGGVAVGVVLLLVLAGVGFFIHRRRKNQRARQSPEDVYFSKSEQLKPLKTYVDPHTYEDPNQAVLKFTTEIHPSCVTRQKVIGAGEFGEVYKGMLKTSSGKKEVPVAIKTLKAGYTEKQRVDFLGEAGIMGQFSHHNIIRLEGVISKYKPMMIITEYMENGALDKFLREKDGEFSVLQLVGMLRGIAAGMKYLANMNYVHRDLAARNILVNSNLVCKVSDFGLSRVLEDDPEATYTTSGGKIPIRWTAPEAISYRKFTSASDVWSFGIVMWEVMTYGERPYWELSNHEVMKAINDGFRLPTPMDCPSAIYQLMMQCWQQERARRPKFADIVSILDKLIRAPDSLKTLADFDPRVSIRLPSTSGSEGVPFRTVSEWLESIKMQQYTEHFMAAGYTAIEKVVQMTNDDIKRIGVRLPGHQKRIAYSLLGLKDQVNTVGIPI
Sequence of Receptor tyrosine-protein kinase erbB-2 (P04626 whole entry): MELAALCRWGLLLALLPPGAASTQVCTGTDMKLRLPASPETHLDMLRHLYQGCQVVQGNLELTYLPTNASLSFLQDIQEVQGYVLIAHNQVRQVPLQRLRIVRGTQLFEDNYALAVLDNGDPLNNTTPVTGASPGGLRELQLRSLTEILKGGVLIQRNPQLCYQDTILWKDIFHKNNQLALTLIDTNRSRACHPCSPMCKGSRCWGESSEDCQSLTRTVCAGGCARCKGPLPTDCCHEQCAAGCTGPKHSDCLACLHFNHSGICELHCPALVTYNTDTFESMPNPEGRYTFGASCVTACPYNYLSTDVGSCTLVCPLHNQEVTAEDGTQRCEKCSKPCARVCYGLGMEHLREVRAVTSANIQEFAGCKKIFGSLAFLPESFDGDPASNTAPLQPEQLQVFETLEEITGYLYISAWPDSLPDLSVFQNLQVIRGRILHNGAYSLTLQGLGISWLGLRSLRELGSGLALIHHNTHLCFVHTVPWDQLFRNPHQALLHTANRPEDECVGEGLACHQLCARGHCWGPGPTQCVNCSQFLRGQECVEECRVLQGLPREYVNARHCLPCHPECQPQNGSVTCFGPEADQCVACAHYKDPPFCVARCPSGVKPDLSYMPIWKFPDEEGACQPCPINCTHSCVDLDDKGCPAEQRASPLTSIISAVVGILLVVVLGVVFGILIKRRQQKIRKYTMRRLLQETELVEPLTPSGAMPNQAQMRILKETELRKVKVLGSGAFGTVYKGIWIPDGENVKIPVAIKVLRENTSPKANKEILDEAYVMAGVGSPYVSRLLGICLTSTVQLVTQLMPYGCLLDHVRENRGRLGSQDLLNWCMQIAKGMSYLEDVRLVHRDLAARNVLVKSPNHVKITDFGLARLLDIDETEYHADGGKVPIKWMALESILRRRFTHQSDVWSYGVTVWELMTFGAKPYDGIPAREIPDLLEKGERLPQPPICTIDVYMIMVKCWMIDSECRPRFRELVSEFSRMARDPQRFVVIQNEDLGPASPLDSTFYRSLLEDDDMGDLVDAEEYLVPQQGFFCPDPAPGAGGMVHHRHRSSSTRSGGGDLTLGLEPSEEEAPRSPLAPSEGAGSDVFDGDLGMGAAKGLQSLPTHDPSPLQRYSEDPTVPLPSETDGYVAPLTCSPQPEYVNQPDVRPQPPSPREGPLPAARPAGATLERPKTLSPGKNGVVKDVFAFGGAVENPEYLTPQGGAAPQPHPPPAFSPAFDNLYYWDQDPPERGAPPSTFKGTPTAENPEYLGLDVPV

Row | SMILES | IC50 [1] | IC50 (Ephrin type-A receptor 2) | IC50 [2]
1 | COc1cc2c(Nc3ccc(Cl)c(Cl)c3)ncnc2cc1OCC1CN2CCOCC2CO1 (stereo not given) [US9796704, Entry 25] | in the range around 10500 nM | – | –
2 | COc1cc2c(Nc3ccc(Cl)c(Cl)c3)ncnc2cc1OC[C@@H]1CO[C@H]2[C@@H]1OC[C@@H]2OC [US9796704, Entry 42] | in the range around 10500 nM | – | –
3 | COc1cc2c(Nc3ccc(Cl)c(Cl)c3F)ncnc2cc1OCC1CO[C@@H]2[C@@H](OC)CO[C@H]12 (stereo not given in full) [US9796704, Entry 43] | in the range around 10500 nM | – | –
4 | COc1cc2c(Nc3ccc(Cl)c(Cl)c3)ncnc2cc1OCC1CN(Cc2ccccc2)CCO1 (stereo not given) [US9796704, Entry 147] | – | in the range around 10500 nM | in the range around 525 nM
5 | COc1cc2c(Nc3ccc(Cl)c(Cl)c3)ncnc2cc1OCc1noc(C2CCCNC2)n1 (stereo not given) [US9796704, Entry 153] | – | in the range around 525 nM | in the range around 525 nM
6 | COc1cc2c(Nc3ccc(Cl)c(Cl)c3)ncnc2cc1OCc1noc(C2CCCN(C)C2)n1 (stereo not given) [US9796704, Entry 156] | – | in the range around 525 nM | in the range around 525 nM
7 | COc1cc2c(Nc3ccc(Cl)c(Cl)c3)ncnc2cc1OCc1nc(-c2ccncc2)cs1 [US9796704, Entry 203] | in the range around 525 nM | – | –
8 | CCN1CCN(c2noc(COc3cc4ncnc(Nc5ccc(Cl)c(Cl)c5)c4cc3OC)n2)CC1 [US9796704, Entry 220] | in the range around 525 nM | – | in the range around 525 nM
9 | COc1cc2c(Nc3ccc(Cl)c(Cl)c3)ncnc2cc1OCc1csc(-c2ccc(Cl)cc2)n1 [US9796704, Entry 223] | in the range around 525 nM | – | in the range around 525 nM
10 | COc1cc2c(Nc3ccc(Cl)c(Cl)c3)ncnc2cc1OCc1noc(-c2c(C)noc2C)n1 [US9796704, Entry 224] | in the range around 525 nM | – | in the range around 525 nM
11 | COc1cc2c(Nc3ccc(Cl)c(Cl)c3)ncnc2cc1OCc1noc(-c2ccccc2OC)n1 [US9796704, Entry 227] | in the range around 525 nM | – | in the range around 525 nM
12 | COc1cc2c(Nc3ccc(Cl)c(Cl)c3)ncnc2cc1OCc1nnc(-c2ccc(C)cc2)o1 [US9796704, Entry 228] | in the range around 525 nM | – | in the range around 525 nM
13 | COc1cc2c(Nc3ccc(Cl)c(Cl)c3)ncnc2cc1OCc1nccn1Cc1ccccc1 [US9796704, Entry 229] | in the range around 525 nM | – | in the range around 525 nM
14 | CCN1CCCC(c2nc(COc3cc4ncnc(Nc5ccc(Cl)c(Cl)c5)c4cc3OC)no2)C1 (stereo not given) [US9796704, Entry 239] | in the range around 10500 nM | – | –
15 | COc1cc2c(Nc3ccc(Cl)c(Cl)c3)ncnc2cc1OCc1csc(N(C)C)n1 [US9796704, Entry 240] | in the range around 525 nM | – | in the range around 525 nM
16 | COc1cc2c(Nc3ccc(Cl)c(Cl)c3)ncnc2cc1OCc1csc(C2CCCCN2)n1 (stereo not given) [US9796704, Entry 249] | in the range around 10500 nM | – | in the range around 525 nM
17 | COc1cc2c(Nc3ccc(Cl)c(Cl)c3)ncnc2cc1OCc1csc(C2CCCCN2C)n1 (stereo not given) [US9796704, Entry 250] | in the range around 10500 nM | – | in the range around 525 nM
18 | COc1cc2c(Nc3ccc(Cl)c(Cl)c3)ncnc2cc1OCc1csc(C2CCCNC2)n1 (stereo not given) [US9796704, Entry 251] | in the range around 10500 nM | – | in the range around 10500 nM
19 | COCCN1CCCOC(COc2cc3ncnc(Nc4ccc(Cl)c(Cl)c4)c3cc2OC)C1 (stereo not given) [US9796704, Entry 260] | in the range around 525 nM | – | in the range around 10500 nM
20 | COc1cc2c(Nc3ccc(Cl)c(Cl)c3)ncnc2cc1OCC1CN(C(C)C)CCCO1 (stereo not given) [US9796704, Entry 261] | in the range around 525 nM | – | in the range around 10500 nM
21 | COc1cc2c(Nc3ccc(Cl)c(Cl)c3)ncnc2cc1OCc1csc(N2CCNCC2)n1 [US9796704, Entry 262] | in the range around 10500 nM | – | in the range around 10500 nM
22 | COc1cc2c(Nc3ccc(Cl)c(Cl)c3)ncnc2cc1OCc1noc(C2CCCN2)n1 (stereo not given) [US9796704, Entry 263] | in the range around 10500 nM | – | in the range around 10500 nM

Further lines, results first:

Row | IC50 [1] | IC50 (Ephrin type-A receptor 2) | IC50 [2] | SMILES
23 | in the range around 525 nM | – | – | COc1cc2c(Nc3ccc(C(F)(F)F)cc3Br)ncnc2cc1O[C@@H]1CO[C@@H]2[C@H]1OC[C@H]2F [US9796704, Entry 125]
24 | – | in the range around 525 nM | in the range around 525 nM | COc1cc2c(Nc3ccc(Cl)c(Cl)c3)ncnc2cc1OCc1noc(C2CCCCN2C)n1 (stereo not given) [US9796704, Entry 154]
25 | – | in the range around 525 nM | in the range around 525 nM | COc1cc2c(Nc3ccc(Cl)c(Cl)c3)ncnc2cc1OCc1cc(C)on1 [US9796704, Entry 160]
26 | – | in the range around 525 nM | in the range around 525 nM | COc1cc2c(Nc3ccc(Cl)c(Cl)c3)ncnc2cc1OCc1ccc2nonc2c1 [US9796704, Entry 163]
27 | – | in the range around 525 nM | in the range around 525 nM | COc1cc2c(Nc3ccc(Cl)c(Cl)c3)ncnc2cc1OCc1c(-c2ccccc2)nn(C)c1Cl [US9796704, Entry 175]
28 | in the range around 525 nM | – | in the range around 525 nM | COc1cc2c(Nc3ccc(Cl)c(Cl)c3)ncnc2cc1OCc1csc(-c2ccc(C(F)(F)F)cc2)n1 [US9796704, Entry 222]
29 | in the range around 10500 nM | – | in the range around 10500 nM | COc1cc2c(Nc3ccc(Cl)c(Cl)c3)ncnc2cc1OCc1csc2ccc(Cl)cc12 [US9796704, Entry 225]
30 | in the range around 525 nM | – | – | COc1cc2c(Nc3ccc(Cl)c(Cl)c3)ncnc2cc1OCc1cc(Br)cc(Br)c1 [US9796704, Entry 232]
31 | in the range around 525 nM | – | – | COc1cc2c(Nc3ccc(Cl)c(Cl)c3)ncnc2cc1OCc1noc(-c2ccccc2)n1 [US9796704, Entry 235]
32 | in the range around 525 nM | – | in the range around 525 nM | CCN1CCCOC(COc2cc3ncnc(Nc4ccc(Cl)c(Cl)c4)c3cc2OC)C1 (stereo not given) [US9796704, Entry 241]
33 | in the range around 525 nM | – | – | CCN1CCC(c2nc(COc3cc4ncnc(Nc5ccc(Cl)c(Cl)c5)c4cc3OC)cs2)CC1 [US9796704, Entry 242]
34 | in the range around 525 nM | – | in the range around 525 nM | COc1cc2c(Nc3ccc(Cl)c(Cl)c3)ncnc2cc1OCc1csc(CO)n1 [US9796704, Entry 246]
35 | in the range around 525 nM | – | in the range around 525 nM | COc1cc2c(Nc3ccc(Cl)c(Cl)c3)ncnc2cc1OCc1csc([C@@H]2CSCN2)n1 [US9796704, Entry 248]
36 | in the range around 10500 nM | – | in the range around 10500 nM | CCN1CCCCC1c1nc(COc2cc3ncnc(Nc4ccc(Cl)c(Cl)c4)c3cc2OC)cs1 (stereo not given) [US9796704, Entry 253]
37 | in the range around 525 nM | – | in the range around 10500 nM | CCN1CCCC(c2nc(COc3cc4ncnc(Nc5ccc(Cl)c(Cl)c5)c4cc3OC)cs2)C1 (stereo not given) [US9796704, Entry 254]
